Columns and labels:
[1] = target: baculovirus-expressed ALK (Homo sapiens, UniProt Q9UM73); assay: ALK kinase inhibition, TRF/ELISA; type: biochemical; conditions: read-out: ALK Potency
How it was run: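 Plates were coated with GST-PLC-γ substrate (10 μg/mL) and the reaction was started with 30 ng/mL ALK, running 15 min at 37° C. Phosphotyrosine was detected by time-resolved fluorescence with Eu-labeled PT66 antibody. IC50s came from variable-slope sigmoidal fits of percent inhibition versus log concentration.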

[2] = target: baculovirus-expressed JAK2 kinase (Homo sapiens, UniProt O60674); assay: biochemical; conditions: 0.2 μM ATP; read-out: JAK2 Potency
How it was run: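 Time-resolved fluorescence kinase assay using 15 ng/mL baculovirus-expressed JAK2 on Neutravidin-captured biotinylated 15-mer peptide substrate, reaction 20 min at room temperature. IC50 from percent inhibition versus log concentration, sigmoidal variable-slope fit.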

baculovirus-expressed ALK, sequence (Q9UM73 19-1620): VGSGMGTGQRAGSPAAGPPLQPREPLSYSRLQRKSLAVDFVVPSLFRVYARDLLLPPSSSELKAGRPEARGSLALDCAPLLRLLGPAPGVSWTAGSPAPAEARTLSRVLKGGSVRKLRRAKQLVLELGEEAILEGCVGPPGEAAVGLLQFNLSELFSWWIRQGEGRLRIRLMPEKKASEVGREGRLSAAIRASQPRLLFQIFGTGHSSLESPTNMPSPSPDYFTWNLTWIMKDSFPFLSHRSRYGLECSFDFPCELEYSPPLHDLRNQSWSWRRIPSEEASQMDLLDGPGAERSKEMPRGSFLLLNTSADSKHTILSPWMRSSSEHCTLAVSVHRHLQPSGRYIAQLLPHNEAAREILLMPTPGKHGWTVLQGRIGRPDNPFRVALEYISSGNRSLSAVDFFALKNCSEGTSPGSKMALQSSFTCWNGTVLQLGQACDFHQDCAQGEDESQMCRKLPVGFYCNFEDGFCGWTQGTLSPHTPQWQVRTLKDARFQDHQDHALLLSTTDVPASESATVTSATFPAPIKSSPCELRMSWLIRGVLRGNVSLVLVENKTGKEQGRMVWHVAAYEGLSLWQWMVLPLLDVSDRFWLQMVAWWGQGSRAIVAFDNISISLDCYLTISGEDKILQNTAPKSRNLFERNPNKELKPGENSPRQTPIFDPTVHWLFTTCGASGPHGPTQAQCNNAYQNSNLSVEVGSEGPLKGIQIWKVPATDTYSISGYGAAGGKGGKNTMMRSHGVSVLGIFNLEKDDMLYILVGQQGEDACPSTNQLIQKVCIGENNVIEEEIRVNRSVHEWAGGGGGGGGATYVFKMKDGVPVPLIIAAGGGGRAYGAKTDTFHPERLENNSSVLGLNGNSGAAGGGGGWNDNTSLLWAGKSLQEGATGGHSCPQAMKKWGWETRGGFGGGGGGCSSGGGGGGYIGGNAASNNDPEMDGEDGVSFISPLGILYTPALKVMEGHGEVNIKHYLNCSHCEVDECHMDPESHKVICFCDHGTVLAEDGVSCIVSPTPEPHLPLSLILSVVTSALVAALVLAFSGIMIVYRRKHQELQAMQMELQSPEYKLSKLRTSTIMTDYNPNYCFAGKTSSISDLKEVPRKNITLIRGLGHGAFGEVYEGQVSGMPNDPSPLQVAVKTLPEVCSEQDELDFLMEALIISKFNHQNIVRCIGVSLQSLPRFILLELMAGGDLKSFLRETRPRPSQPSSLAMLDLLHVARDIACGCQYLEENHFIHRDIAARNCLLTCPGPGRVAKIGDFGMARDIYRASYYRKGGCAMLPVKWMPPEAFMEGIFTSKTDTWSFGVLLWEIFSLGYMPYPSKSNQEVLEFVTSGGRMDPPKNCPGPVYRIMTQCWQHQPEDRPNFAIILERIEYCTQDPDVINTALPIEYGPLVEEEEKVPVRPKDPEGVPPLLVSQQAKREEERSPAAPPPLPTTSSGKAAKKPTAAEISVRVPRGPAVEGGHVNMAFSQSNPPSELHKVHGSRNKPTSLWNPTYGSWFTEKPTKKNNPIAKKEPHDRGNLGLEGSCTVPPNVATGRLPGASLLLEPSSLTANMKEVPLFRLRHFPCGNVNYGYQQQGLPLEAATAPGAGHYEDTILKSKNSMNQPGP
baculovirus-expressed JAK2 kinase, sequence (O60674 whole entry): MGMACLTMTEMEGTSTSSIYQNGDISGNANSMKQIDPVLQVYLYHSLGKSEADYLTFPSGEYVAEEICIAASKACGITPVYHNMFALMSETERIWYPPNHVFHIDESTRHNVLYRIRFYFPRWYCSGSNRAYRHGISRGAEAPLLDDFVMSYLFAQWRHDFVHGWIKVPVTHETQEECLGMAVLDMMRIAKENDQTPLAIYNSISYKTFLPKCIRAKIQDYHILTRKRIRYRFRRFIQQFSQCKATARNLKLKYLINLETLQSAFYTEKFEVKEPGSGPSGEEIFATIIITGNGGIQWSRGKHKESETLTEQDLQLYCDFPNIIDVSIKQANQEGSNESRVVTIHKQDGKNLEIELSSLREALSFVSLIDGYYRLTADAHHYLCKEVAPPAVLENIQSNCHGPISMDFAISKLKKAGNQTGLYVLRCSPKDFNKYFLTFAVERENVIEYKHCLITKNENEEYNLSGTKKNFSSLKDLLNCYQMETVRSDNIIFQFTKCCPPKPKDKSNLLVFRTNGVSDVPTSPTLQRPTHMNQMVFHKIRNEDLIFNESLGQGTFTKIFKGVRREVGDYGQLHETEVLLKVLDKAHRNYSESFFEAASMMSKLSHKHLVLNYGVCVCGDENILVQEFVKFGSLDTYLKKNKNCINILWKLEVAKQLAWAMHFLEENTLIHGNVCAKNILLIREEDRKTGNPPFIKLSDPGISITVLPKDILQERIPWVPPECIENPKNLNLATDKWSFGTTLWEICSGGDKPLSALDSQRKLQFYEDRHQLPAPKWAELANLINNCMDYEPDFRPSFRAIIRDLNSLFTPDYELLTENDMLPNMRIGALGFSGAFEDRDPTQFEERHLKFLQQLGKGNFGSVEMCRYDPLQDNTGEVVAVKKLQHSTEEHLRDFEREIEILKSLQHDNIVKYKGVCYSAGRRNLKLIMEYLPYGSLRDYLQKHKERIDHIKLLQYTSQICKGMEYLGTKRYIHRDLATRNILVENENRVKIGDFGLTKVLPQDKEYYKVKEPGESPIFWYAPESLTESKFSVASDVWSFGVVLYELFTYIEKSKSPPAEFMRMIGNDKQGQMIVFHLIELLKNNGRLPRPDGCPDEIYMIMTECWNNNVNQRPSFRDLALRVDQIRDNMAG

| IC50 [1] [nM] | IC50 [2] [nM] | SMILES |
| --- | --- | --- |
| 100 to 1000 | < 100 | CN(C)CCOc1ccc(-c2nc3c(N[C@H]4[C@@H](C(=O)N(C)C)[C@@H]5C=C[C@H]4C5)c(Cl)cnc3[nH]2)cc1 [Compound CLXXVII, (1S,2S,3R,4R)-3-[6-Chloro-2-[4-(2-dimethylamino-ethoxy)-phenyl]-3H-imidazo[4,5-b]pyridin-7-ylamino]-bicyclo[2.2.1]hept-5-ene-2-carboxylic acid dimethylamide] |
| 100 to 1000 | < 100 | NC(=O)[C@@H]1[C@H](Nc2c(Cl)cnc3[nH]c(-c4cn5c(n4)CCCC5)nc23)[C@H]2C=C[C@@H]1C2 [Compound CCXIII, (1S,2S,3R,4R)-3-(6-chloro-2-(5,6,7,8-tetrahydroimidazo[1,2-a]pyridin-2-yl)-3H-imidazo[4,5-b]pyridin-7-ylamino)bicyclo[2.2.1]hept-5-ene-2-carboxamide] |
| < 100 | < 100 | CC(O)CN1CCC(Oc2cccc(-c3nc4c(N[C@H]5[C@@H](C(N)=O)[C@@H]6C=C[C@H]5C6)c(Cl)cnc4[nH]3)c2)CC1 (stereo partly drawn) [Compound CCLI, (1S,2S,3R,4R)-3-(6-chloro-2-(3-(1-(2-hydroxypropyl)piperidin-4-yloxy)phenyl)-3H-imidazo[4,5-b]pyridine-7-ylamino)pyridin[2.2.1]hept-5-ene-2-carboxamide] |
| < 100 | 1000 to 10000 | COc1cc(CN2CCOCC2)ccc1-c1nc2c(N[C@@H]3CCCC[C@H]3NS(C)(=O)=O)c(Cl)cnc2[nH]1 [Compound LXX, N-{(1R,2R)-2-[6-Chloro-2-(2-methoxy-4-morpholin-4-ylmethyl-phenyl)-3H-imidazo[4,5-b]pyridine-7-ylamino]-cyclohexyl}-methanesulfonamide] |
| < 100 | < 100 | NC(=O)[C@@H]1[C@H](Nc2c(Br)cnc3[nH]c(-c4ccccc4F)nc23)[C@H]2C=C[C@@H]1C2 [Compound CXXXI, (1S,2S,3R,4R)-3-[6-Bromo-2-(2-fluoro-phenyl)-3H-imidazo[4,5-b]pyridin-7-ylamino]-bicyclo[2.2.1]hept-5-ene-2-carboxylic acid amide] |
| < 100 | < 100 | CN(C)CCOc1cccc(-c2nc3c(N[C@H]4[C@@H](C(N)=O)[C@@H]5C=C[C@H]4C5)c(Cl)cnc3[nH]2)c1 [Compound CCXLVII, (1S,2S,3R,4R)-3-(6-chloro-2-(3-(2-(dimethylamino)ethoxy)phenyl)-3H-imidazo[4,5-b]234yridine-7-ylamino)pyridin[2.2.1]hept-5-ene-2-carboxamide] |
| > 10000 | 100 to 1000 | CN(C)c1cccc(-c2nc3c(N[C@@H]4[C@H](C(N)=O)[C@H]5C=C[C@@H]4C5)c(Cl)cnc3[nH]2)c1 [Compound XXIV, (1R,2R,3S,4S)-3-[6-Chloro-2-(3-dimethylamino-phenyl)-3H-imidazo[4,5-b]pyridine-7-ylamino]-bicyclo[2.2.1]hept-5-ene-2-carboxylic acid amide] |
| 100 to 1000 | < 100 | NC(=O)[C@@H]1[C@H](Nc2c(Cl)cnc3[nH]c(-c4ccc(F)cc4)nc23)[C@H]2C=C[C@@H]1C2 [Compound CXXIX, (1S,2S,3R,4R)-3-[6-Chloro-2-(4-fluoro-phenyl)-3H-imidazo[4,5-b]pyridin-7-ylamino]-bicyclo[2.2.1]hept-5-ene-2-carboxylic acid amide] |
| < 100 | < 100 | NC(=O)[C@@H]1[C@H](Nc2c(Br)cnc3[nH]c(-c4ccc5c(c4)CCC4(CCNCC4)O5)nc23)[C@H]2C=C[C@@H]1C2 [Compound CXIV, (1S,2S,3R,4R)-3-[(6-bromo-2-spiro[chromane-2,4′-piperidine]-6-yl-3H-imidazo[4,5-b]pyridin-7-yl)amino]bicyclo[2.2.1]hept-5-ene-2-carboxamide] |
| 100 to 1000 | < 100 | Cc1ncc(-c2nc3c(N[C@H]4[C@@H](C(N)=O)[C@@H]5C=C[C@H]4C5)c(Cl)cnc3[nH]2)s1 [Compound CCVIII, (1S,2S,3R,4R)-3-(6-chloro-2-(2-methylthiazol-5-yl)-3H-imidazo[4,5-b]pyridin-7-ylamino)bicyclo[2.2.1]hept-5-ene-2-carboxamide] |

Reference: patent US9238656B2, “Imidazo[4,5-b]pyridine derivatives as ALK and JAK modulators for the treatment of proliferative disorders” (priority 2012, dated 2016)
